Results as given in patent publication US20240034731A1, “AZA-QUINAZOLINE COMPOUNDS AND METHODS OF USE” (Iambic Therapeutics, Inc., priority 2022, published 2024).

Assays:
CDK2/Cyclin E1 = CDK2/Cyclin E1 (Homo sapiens (Human), UniProt P24941); assay: CDK2/Cyclin E1 Full length ADP-Glo Kinase Assay; assay type: biochemical; conditions: 20 uM ATP, read-out: CDK2/ CyclinE1 IC50
Method in brief: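 Full-length human CDK2/cyclin E1 was preincubated 30 min at room temperature with inhibitor, then reacted 90 min with ATP-containing substrate solution. ADP formed was measured by ADP-Glo luminescence; IC50 from 4-parameter fit of fractional velocity versus inhibitor concentration.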

CDK1/Cyclin B1 = CDK1/Cyclin B1 (Homo sapiens (Human), UniProt P06493); assay: CDK1/Cyclin B1 ADP-Glo Kinase Assay; assay type: biochemical; conditions: ADP-Glo, 80 uM ATP; read-out: CDK1 Cyclin B1 IC50
Method in brief: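 Enzyme and inhibitor pre-incubated 30 min at room temperature before ATP/substrate addition; reaction run 90 min at room temperature. ADP formed measured by ADP-Glo luminescence; IC50 from a 4-parameter fit of fractional velocity versus inhibitor concentration.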

MCF-7 cells = assay: Cell Growth Inhibition, MCF-7 (CellTiterGlo, 6 days); assay type: cell-based; conditions: Homo sapiens, MCF7, 144 h, MCF-7, 6-day treatment
Method in brief: (§1)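 MCF-7 (ER+ breast adenocarcinoma) or CCNE1-amplified OVCAR-3 cells, 500/well in RPMI with 10% FBS, treated with half-log dilutions typically 10-10,000 nM for 6 days at 37 °C. CellTiterGlo 2.0 luminescence gave % growth inhibition versus control; IC50 by four-parameter variable-slope fit.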

CDK6/Cyclin D3 = CDK6/Cyclin D3 (Homo sapiens (Human), UniProt Q00534); assay: CDK6/Cyclin D3 ADP-Glo Kinase Assay; assay type: biochemical; conditions: 100 uM ATP, read-out: CDK6/ CyclinD3 IC50
Method in brief: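 Enzyme and inhibitor were pre-incubated for 30 min at room temperature before ATP/substrate was added. The kinase reaction ran 90 min at room temperature, and ADP formed was detected by ADP-Glo luminescence. IC50 was fitted with a 4-parameter equation to fractional velocity versus inhibitor concentration.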

CDK4/Cyclin D1 = CDK4/Cyclin D1 (Homo sapiens (Human), UniProt P11802); assay: CDK4/Cyclin D1 CHEF Assay (AQT0258 peptide); assay type: biochemical; conditions: 200 uM ATP, read-out: CDK4/ CyclinD1 AQT IC50
Method in brief: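 Sox-labelled peptide AQT0258 phosphorylation read as chelation-enhanced fluorescence (ex 360/em 485 nm) with Mg(II). Enzyme preincubated with inhibitor 30 min at 22°C, substrate added, 3 h at 22°C; IC50 from four-parameter fit of fractional velocity versus inhibitor concentration.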

OVCAR-3 cells = assay: Cell Growth Inhibition, OVCAR-3 (CellTiterGlo, 6 days); assay type: cell-based; conditions: Homo sapiens, 144 h, OVCAR-3, 6-day treatment
Method in brief: as §1

CDK1/Cyclin B1, sequence (P06493 whole entry): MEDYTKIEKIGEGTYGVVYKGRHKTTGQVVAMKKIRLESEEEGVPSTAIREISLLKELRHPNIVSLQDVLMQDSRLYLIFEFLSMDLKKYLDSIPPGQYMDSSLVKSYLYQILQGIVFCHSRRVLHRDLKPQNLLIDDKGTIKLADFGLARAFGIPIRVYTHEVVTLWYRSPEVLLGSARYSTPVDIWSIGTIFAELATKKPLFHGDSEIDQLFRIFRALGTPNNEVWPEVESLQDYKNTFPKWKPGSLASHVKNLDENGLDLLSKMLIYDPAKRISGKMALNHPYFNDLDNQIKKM
CDK1/Cyclin B1, sequence (P14635 whole entry partner): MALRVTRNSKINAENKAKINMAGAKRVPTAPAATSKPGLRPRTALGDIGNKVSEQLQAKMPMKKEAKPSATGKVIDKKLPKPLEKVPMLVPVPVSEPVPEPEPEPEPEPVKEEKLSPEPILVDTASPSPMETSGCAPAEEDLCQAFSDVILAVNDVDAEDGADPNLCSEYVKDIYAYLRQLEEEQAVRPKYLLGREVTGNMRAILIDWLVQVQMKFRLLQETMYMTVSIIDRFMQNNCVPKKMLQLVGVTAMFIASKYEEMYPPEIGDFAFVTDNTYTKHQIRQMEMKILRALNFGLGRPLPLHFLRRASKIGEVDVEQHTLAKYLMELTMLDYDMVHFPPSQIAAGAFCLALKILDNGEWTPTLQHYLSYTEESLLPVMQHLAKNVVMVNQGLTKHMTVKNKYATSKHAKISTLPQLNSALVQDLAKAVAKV
CDK4/Cyclin D1, sequence (P11802 whole entry): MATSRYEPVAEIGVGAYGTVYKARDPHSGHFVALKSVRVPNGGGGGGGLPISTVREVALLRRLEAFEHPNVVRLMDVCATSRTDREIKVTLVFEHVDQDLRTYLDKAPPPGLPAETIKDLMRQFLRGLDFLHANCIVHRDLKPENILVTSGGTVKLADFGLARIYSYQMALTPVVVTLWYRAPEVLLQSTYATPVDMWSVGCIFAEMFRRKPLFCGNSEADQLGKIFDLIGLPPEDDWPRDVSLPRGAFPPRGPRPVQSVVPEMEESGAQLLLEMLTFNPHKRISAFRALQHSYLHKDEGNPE
CDK4/Cyclin D1, sequence (P24385 whole entry partner): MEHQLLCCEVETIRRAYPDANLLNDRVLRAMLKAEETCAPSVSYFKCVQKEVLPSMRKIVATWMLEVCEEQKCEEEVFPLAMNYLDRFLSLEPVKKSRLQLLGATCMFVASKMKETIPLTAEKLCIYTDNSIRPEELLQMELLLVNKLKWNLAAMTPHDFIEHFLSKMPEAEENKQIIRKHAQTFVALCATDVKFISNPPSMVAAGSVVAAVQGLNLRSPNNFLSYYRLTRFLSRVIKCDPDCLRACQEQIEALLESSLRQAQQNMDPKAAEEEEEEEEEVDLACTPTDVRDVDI
CDK6/Cyclin D3, sequence (Q00534 whole entry): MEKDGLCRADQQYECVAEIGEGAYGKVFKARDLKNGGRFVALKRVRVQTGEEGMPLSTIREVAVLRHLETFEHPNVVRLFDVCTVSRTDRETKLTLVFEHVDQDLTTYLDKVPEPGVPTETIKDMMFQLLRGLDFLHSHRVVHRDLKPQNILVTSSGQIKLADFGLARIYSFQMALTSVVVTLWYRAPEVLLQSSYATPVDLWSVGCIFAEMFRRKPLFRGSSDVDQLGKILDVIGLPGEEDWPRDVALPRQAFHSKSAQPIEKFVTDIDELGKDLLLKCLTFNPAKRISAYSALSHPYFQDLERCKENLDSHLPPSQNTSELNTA
CDK6/Cyclin D3, sequence (P30281 whole entry partner): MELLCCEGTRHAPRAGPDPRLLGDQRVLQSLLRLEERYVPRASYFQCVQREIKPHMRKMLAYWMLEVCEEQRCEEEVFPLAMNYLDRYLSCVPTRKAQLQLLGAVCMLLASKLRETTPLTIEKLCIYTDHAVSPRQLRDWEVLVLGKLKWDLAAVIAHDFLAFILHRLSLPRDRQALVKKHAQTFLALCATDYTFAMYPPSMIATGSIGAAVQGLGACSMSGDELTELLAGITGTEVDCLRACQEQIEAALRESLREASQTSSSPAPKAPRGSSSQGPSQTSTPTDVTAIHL

Row | SMILES | IC50 (CDK2/Cyclin E1) [nM] | IC50 (CDK1/Cyclin B1) [nM] | IC50 (MCF-7 cells) [nM] | IC50 (CDK6/Cyclin D3) [nM] | IC50 (CDK4/Cyclin D1) [nM] | IC50 (OVCAR-3 cells) [nM]
1 | Cc1cc2cnc(NC3CCN(S(=O)(=O)C4CC4)CC3)nc2c(N2CC3(CCNC3)C2)n1 [Example 25, N-(1-(cyclopropylsulfonyl)piperidin-4-yl)-6-methyl-8-(2,6-diazaspiro[3.4]octan-2-yl)pyrido[3,4-d]pyrimidin-2-amine] | < 200 | 200 to 500 | 200 to 500 | < 200 | < 200 | 200 to 500
2 | Cc1cc2cnc(NC3CCN(S(=O)(=O)c4ccn(C)n4)CC3)nc2c(N2CC(F)(F)C3(CNC3)C2)n1 [Compound 94, 8-(8,8-difluoro-2,6-diazaspiro[3.4]octan-6-yl)-6-methyl-N-(1-((1-methyl-1H-pyrazol-3-yl)sulfonyl)piperidin-4-yl)pyrido[3,4-d]pyrimidin-2-amine] | < 200 | < 200 | 500 to 2000 | < 200 | < 200 | 200 to 500
3 | CS(=O)(=O)N1CCC(Nc2ncc3cc(C(F)F)nc(N4CC5(CNCCC5(F)F)C4)c3n2)CC1 [Compound 65, 8-(9,9-difluoro-2,6-diazaspiro[3.5]nonan-2-yl)-6-(difluoromethyl)-N-(1-(methylsulfonyl)piperidin-4-yl)pyrido[3,4-d]pyrimidin-2-amine] | < 200 | < 200 | 200 to 500 | < 200 | < 200 | 200 to 500
4 | Cc1cc2cnc(Nc3ccc(N4CC5(CN(C)C5)C4)cc3)nc2c(N2CCC3(C2)CC3(F)F)n1 (stereo not drawn) [Compound 34, 8-(1,1-difluoro-5-azaspiro[2.4]heptan-5-yl)-6-methyl-N-(4-(6-methyl-2,6-diazaspiro[3.3]heptan-2-yl)phenyl)pyrido[3,4-d]pyrimidin-2-amine] | < 200 | 500 to 2000 | 500 to 2000 | < 200 | < 200 | 500 to 2000
5 | Cc1cc2cnc(Nc3cnn(C4CC5(C4)CN(C)C5)c3)nc2c(N2CCC3(C2)CC3(F)F)n1 (stereo not drawn) [Compound 33, 8-(1,1-difluoro-5-azaspiro[2.4]heptan-5-yl)-6-methyl-N-(1-(2-methyl-2-azaspiro[3.3]heptan-6-yl)-1H-pyrazol-4-yl)pyrido[3,4-d]pyrimidin-2-amine] | 200 to 500 | 500 to 2000 | 500 to 2000 | < 200 | < 200 | 500 to 2000
6 | Cc1cc2cnc(NC3CCN(S(C)(=O)=O)CC3)nc2c(N2CCC3(C2)CC(F)(F)C3)n1 [Compound 53, 8-(2,2-difluoro-6-azaspiro[3.4]octan-6-yl)-6-methyl-N-(1-(methylsulfonyl)piperidin-4-yl)pyrido[3,4-d]pyrimidin-2-amine] | < 200 | > 2000 | > 2000 | < 200 | < 200 | > 2000
7 | Cc1cc2cnc(N[C@@H]3CCOC[C@H]3O)nc2c(N2CC(O)(C3CC3)C2)n1 [Compound 86, 3-cyclopropyl-1-(2-(((3S,4R)-3-hydroxytetrahydro-2H-pyran-4-yl)amino)-6-methylpyrido[3,4-d]pyrimidin-8-yl)azetidin-3-ol] | 200 to 500 | > 2000 | > 2000 | 200 to 500 | < 200 | > 2000
8 | Cc1cc2cnc(NC3CCN(S(C)(=O)=O)CC3)nc2c(N2CC3(CNCC3(F)F)C2)n1 [Compound 85, 8-(8,8-difluoro-2,6-diazaspiro[3.4]octan-2-yl)-6-methyl-N-(1-(methylsulfonyl)piperidin-4-yl)pyrido[3,4-d]pyrimidin-2-amine] | < 200 | < 200 | 500 to 2000 | < 200 | < 200 | 500 to 2000
9 | Cc1cc2cnc(NC3CCN(S(C)(=O)=O)CC3)nc2c(N2CCC3(C2)CC3(F)F)n1 (stereo not drawn) [Compound 41, 8-(1,1-difluoro-5-azaspiro[2.4]heptan-5-yl)-6-methyl-N-(1-(methylsulfonyl)piperidin-4-yl)pyrido[3,4-d]pyrimidin-2-amine] | < 200 | < 200 | > 2000 | < 200 | < 200 | > 2000
10 | Cc1cc2cnc(NC3CCN(S(C)(=O)=O)CC3)nc2c(N2CC(O)(C(F)F)C2)n1 [Compound 91, 3-(difluoromethyl)-1-(6-methyl-2-((1-(methylsulfonyl)piperidin-4-yl)amino)pyrido[3,4-d]pyrimidin-8-yl)azetidin-3-ol] | < 200 | < 200 | 500 to 2000 | < 200 | < 200 | 200 to 500
11 | COC1CC2(C1)CN(c1nc(C)cc3cnc(NC4CCN(S(=O)(=O)C5CC5)CC4)nc13)C2 [Compound 71, N-(1-(cyclopropylsulfonyl)piperidin-4-yl)-8-(6-methoxy-2-azaspiro[3.3]heptan-2-yl)-6-methylpyrido[3,4-d]pyrimidin-2-amine] | < 200 | 200 to 500 | > 2000 | < 200 | < 200 | > 2000
12 | Cc1cc2cnc(NC3CCN(S(C)(=O)=O)CC3)nc2c(N2CC(F)(F)C3(CNC3)C2)n1 [Compound 92, 8-(8,8-difluoro-2,6-diazaspiro[3.4]octan-6-yl)-6-methyl-N-(1-(methylsulfonyl)piperidin-4-yl)pyrido[3,4-d]pyrimidin-2-amine] | < 200 | < 200 | 500 to 2000 | < 200 | < 200 | 500 to 2000
13 | CS(=O)(=O)N1CCC(Nc2ncc3cc(C4CC4)nc(C4CC5(CNCCO5)C4)c3n2)CC1 (stereo not drawn) [Compound 70, 6-cyclopropyl-N-(1-(methylsulfonyl)piperidin-4-yl)-8-(5-oxa-8-azaspiro[3.5]nonan-2-yl)pyrido[3,4-d]pyrimidin-2-amine] | < 200 | < 200 | 500 to 2000 | < 200 | < 200 | 500 to 2000
14 | Cc1cc2cnc(NC3CCN(S(=O)(=O)C4CC4)CC3)nc2c(N2CC3(CCN(C)C3)C2)n1 [Compound 49, N-(1-(cyclopropylsulfonyl)piperidin-4-yl)-6-methyl-8-(6-methyl-2,6-diazaspiro[3.4]octan-2-yl)pyrido[3,4-d]pyrimidin-2-amine] | < 200 | 500 to 2000 | 500 to 2000 | 200 to 500 | < 200 | 500 to 2000
15 | Cc1cc2cnc(Nc3cc4c(cc3F)CN(S(C)(=O)=O)C4)nc2c(N2CC3(CCNC3)C2)n1 [Example 39, N-(6-fluoro-2-(methylsulfonyl)isoindolin-5-yl)-6-methyl-8-(2,6-diazaspiro [3.4]octan-2-yl)pyrido[3,4-d]pyrimidin-2-amine] | < 200 | > 2000 | 500 to 2000 | > 2000 | 200 to 500 | > 2000
16 | Cc1cc2cnc(Nc3ccc(CS(C)(=O)=O)cc3)nc2c(N2CC(O)(C3CC3)C2)n1 [Compound 83, 3-cyclopropyl-1-(6-methyl-2-((4-((methylsulfonyl)methyl)phenyl)amino)pyrido[3,4-d]pyrimidin-8-yl)azetidin-3-ol] | < 200 | 200 to 500 | > 2000 | < 200 | < 200 | > 2000
17 | Cc1cc2cnc(Nc3ccc4c(c3)CN(S(C)(=O)=O)C4)nc2c(N2CC3(CN(C)C3)C2)n1 [Compound 27, 6-methyl-8-(6-methyl-2,6-diazaspiro[3.3]heptan-2-yl)-N-(2-(methylsulfonyl)isoindolin-5-yl)pyrido[3,4-d]pyrimidin-2-amine] | < 200 | 500 to 2000 | > 2000 | 500 to 2000 | 500 to 2000 | 500 to 2000
18 | COCCN1CC2(CC(c3nc(C4CC4)cc4cnc(NC5CCN(S(=O)(=O)CC6CCC6)CC5)nc34)C2)C1 [Compound 80, N-(1-((cyclobutylmethyl)sulfonyl)piperidin-4-yl)-6-cyclopropyl-8-(2-(2-methoxyethyl)-2-azaspiro[3.3]heptan-6-yl)pyrido[3,4-d]pyrimidin-2-amine] | < 200 | 500 to 2000 | > 2000 | < 200 | < 200 | > 2000
19 | Cc1cc2cnc(Nc3cnn(C4CC5(C4)CN(C)C5)c3)nc2c(N2CC3(C2)CN(S(C)(=O)=O)C3)n1 [Compound 26, 6-methyl-N-(1-(2-methyl-2-azaspiro[3.3]heptan-6-yl)-1H-pyrazol-4-yl)-8-(6-(methylsulfonyl)-2,6-diazaspiro[3.3]heptan-2-yl)pyrido[3,4-d]pyrimidin-2-amine] | 200 to 500 | > 2000 | > 2000 | 500 to 2000 | 200 to 500 | > 2000
